Test results from patent US20190151289A1, “Identification of Small Molecule Inhibitors of Jumonji AT-Rich Interactive Domain 1A (JARID1A) Histone Demethylase” (YALE UNIVERSITY, priority 2016, published 2019).
Like-named read-outs stand apart in the source and are kept apart here.

Key:
full-length FLAG-KDM5A = target: T1, full-length FLAG-KDM5A (Homo sapiens, UniProt P29375); assay: AlphaScreen KDM5A demethylation assay (bio-H3K4me3 peptide); assay type: biochemical; details: for hit in KDM5A inhibitor screen: compounds at 20 μM, hit threshold ~30% inhibition
T1 construct: Sf21 insect cells were infected with baculovirus to express full-length FLAG-KDM5A; made in house; host or cells: Sf21 insect cells (baculovirus)
T1 sequence (P29375 whole entry): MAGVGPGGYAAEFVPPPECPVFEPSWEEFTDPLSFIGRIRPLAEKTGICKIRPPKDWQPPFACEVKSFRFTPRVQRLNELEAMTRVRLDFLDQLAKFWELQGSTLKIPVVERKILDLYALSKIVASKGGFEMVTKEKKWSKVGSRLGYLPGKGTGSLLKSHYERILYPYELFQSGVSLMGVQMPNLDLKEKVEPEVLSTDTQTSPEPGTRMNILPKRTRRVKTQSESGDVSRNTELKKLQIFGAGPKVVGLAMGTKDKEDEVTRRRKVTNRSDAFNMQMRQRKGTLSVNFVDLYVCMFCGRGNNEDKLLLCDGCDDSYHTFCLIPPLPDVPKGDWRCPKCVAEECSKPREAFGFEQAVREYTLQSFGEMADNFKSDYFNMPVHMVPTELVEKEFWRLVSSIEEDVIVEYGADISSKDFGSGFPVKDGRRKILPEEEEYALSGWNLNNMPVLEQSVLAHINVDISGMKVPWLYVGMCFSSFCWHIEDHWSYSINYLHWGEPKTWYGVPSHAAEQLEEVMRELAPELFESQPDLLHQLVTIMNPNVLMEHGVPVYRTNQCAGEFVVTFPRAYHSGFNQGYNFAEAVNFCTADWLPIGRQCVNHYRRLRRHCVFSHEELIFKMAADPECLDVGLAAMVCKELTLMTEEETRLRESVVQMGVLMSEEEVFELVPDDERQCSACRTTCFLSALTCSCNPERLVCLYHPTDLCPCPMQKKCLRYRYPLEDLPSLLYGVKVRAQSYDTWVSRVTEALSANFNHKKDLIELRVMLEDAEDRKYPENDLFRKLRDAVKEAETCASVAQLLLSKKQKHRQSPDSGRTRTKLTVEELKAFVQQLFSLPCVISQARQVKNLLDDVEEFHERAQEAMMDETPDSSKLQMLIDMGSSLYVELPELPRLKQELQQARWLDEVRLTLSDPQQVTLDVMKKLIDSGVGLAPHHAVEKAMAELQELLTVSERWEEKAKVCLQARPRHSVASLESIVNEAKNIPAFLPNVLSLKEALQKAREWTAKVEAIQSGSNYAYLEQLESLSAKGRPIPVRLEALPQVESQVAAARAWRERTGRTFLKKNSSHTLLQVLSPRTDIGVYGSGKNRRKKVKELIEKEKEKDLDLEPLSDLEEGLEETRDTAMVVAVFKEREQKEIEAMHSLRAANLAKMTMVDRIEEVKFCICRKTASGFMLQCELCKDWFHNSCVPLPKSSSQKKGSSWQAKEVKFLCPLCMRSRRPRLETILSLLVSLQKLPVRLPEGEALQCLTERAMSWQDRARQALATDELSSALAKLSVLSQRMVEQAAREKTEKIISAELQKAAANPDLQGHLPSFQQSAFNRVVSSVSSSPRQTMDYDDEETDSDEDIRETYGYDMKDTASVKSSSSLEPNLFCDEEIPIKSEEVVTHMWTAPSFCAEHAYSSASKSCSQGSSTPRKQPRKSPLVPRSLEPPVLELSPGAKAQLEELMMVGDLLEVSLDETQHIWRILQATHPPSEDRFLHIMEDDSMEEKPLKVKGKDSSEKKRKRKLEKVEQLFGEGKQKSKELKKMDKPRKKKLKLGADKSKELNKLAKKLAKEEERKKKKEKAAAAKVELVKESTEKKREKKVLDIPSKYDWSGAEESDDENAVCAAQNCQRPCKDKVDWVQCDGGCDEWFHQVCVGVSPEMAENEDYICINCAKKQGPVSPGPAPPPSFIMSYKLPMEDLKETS
Procedure: (§1) Histone demethylase assays were performed using previously described methods (Sayegh et al., 2013, J. Biol. Chem. 9408-9417), with the exception of all enzyme reactions containing 125 μM α-KG. Enzymes were used at the following approximate concentrations in validation experiments, chosen based on their activity in AlphaScreen assays: 19 nM FLAG-KDM5A, 15 nM FLAG-KDM5B, 6 nM FLAG-KDM5C, 29 nM His-FLAG-KDM6A, and 16 nM FLAG-KDM6B. 24 nM FLAG-KDM5A was used for Km determination experiments. Reactions were carried out for 1 hour, or were stopped by addition of 30 mM EDTA every 5 minutes for determining enzyme kinetics. Km values were calculated using the Michaelis-Menten non-linear regression analysis on GraphPad Prism 6.0 software. The concentration of DMSO in demethylation reactions was 0.05%. For reactions with catalase, catalase (Sigma C30) or an equal volume of dilution buffer was added to the peptide-containing buffer before addition of the demethylase. The final concentration of catalase in the reactions was 0.01 mg/ml.
(§2) The AlphaScreen general IgG (protein A) detection kit from PerkinElmer Life Sciences was used as described previously (Sayegh et al., 2013, J. Biol. Chem. 9408-9417). The luminescence emission was recorded at 570 nm using the AlphaScreen optic module on a Pherastar (BMG Labtech) or Envision (PerkinElmer Life Sciences) microplate reader.
8,861 compounds from the ChemBridge MW-Set, ChemBridge DIVERSet, MicroSource Gen-Plus, MicroSource Pure Natural Products, NIH Clinical Collection, and Enzo Epigenetics libraries were screened for inhibition of FLAG-KDM5A demethylase activity. Compounds were dissolved in DMSO and added at 20 μM to 384-well white plates (Corning 3574) containing 64 nM bio-H3K4me3 peptide in demethylase buffer prior to addition of 13 nM FLAG-KDM5A. Hits were selected at a threshold of three standard deviations (˜30% inhibition). A counter-screen was performed with the hits to eliminate any non-specific compounds. For this, 20 μM compounds were added to 64 nM bio-H3K4me2 peptide in demethylase buffer with no enzyme. Any hits that interfered with the positive signal detection were eliminated. Dose-response curves were performed on selected hits using 0.1-11 μM of compound. Further validation of top hits was performed using 5 μM of each compound or a dose-response curve using 0.05-50 μM of the compound.
Fresh compounds were ordered to confirm identity. IC50 curves were generated for YUKA1 and YUKA2 using 0.05-50 μM compound in 1 hour reactions. IC50 values were calculated by log transformation and non-linear regression log (inhibitor) versus response (three parameters) using Graphpad Prism 6.0 software. Percent activity of KDM5A was calculated for each data point by subtracting the background (average H3K4me3 signal) and dividing by the average signal for the DMSO controls. α-KG competition tests were performed using 150 nM H3K4me3 peptide and 50 μM Fe(II).
AlphaScreen technology (Perkin Elmer) was utilized to perform a screen for small molecule inhibitors of KDM5A. The assay was comprised of two steps, a demethylation reaction followed by detection of the product. A biotinylated H3K4me3 peptide was used as substrate in the demethylation reaction with KDM5A in the presence or absence of small molecule inhibitors. The presence of peptide product (H3K4me1/2) was detected using a product-specific antibody and beads. For this, acceptor beads coated in protein A bound to the antibody, which recognized the peptide product. Donor beads coated in streptavidin bound biotin on the peptide substrate. […]

KDM5C = target: T2, KDM5C (Homo sapiens, UniProt P41229); assay: AlphaScreen KDM5C demethylation assay; assay type: biochemical
T2 construct: FLAG; made in house
T2 sequence (P41229 whole entry): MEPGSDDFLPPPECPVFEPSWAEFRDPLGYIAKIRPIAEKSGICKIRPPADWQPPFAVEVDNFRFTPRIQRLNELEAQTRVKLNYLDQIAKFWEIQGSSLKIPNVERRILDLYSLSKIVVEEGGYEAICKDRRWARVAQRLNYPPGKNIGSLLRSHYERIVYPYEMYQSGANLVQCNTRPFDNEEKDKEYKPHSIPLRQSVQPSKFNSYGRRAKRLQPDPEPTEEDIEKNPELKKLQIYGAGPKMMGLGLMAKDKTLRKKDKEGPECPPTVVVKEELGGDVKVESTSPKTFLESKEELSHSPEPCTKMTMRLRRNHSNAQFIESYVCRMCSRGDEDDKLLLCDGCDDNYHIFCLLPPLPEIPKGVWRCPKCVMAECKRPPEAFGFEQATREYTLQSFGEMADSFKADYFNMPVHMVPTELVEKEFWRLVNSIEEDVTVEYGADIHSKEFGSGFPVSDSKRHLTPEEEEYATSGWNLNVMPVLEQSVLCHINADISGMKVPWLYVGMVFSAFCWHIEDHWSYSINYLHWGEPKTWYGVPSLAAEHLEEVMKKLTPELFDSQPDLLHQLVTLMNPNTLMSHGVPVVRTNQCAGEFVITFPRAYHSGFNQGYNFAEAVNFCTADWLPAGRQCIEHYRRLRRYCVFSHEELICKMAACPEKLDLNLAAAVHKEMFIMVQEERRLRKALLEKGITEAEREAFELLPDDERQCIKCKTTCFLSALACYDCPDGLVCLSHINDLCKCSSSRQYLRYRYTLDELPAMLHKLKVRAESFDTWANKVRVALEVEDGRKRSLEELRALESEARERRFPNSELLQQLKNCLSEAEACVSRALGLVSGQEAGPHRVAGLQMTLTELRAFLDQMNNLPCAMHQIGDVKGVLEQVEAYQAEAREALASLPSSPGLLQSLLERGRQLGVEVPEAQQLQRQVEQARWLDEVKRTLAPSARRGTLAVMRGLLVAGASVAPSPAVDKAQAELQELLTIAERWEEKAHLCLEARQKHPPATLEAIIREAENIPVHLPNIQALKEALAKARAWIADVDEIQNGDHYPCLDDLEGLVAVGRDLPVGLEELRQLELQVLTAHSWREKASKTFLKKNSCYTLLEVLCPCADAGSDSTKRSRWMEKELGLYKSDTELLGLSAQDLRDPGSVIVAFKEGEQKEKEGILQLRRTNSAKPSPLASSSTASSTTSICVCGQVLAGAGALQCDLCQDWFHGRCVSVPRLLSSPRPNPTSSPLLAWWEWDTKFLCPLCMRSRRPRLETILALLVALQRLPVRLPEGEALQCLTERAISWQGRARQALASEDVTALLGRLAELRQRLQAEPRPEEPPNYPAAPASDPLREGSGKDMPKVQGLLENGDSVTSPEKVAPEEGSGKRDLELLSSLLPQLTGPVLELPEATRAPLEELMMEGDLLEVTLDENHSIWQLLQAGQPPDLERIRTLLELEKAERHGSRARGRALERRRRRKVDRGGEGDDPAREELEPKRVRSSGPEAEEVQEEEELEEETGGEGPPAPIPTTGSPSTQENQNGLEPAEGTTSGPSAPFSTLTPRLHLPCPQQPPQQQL
Procedure: as §1, §2

[1] = test system: H3K4 methylation in HeLa cells; assay: Western blot of global H3K4 methylation, HeLa; assay type: cell-based, human; details: HeLa and MCF7 cell lines, western blot
Procedure: Sf21 insect cells were cultured at 27° C. in Grace's medium (Gibco) with 10% fetal bovine serum (FBS) and 1% penicillin/streptomycin. HeLa cells were cultured in DMEM (Gibco) with 10% FBS and 1% penicillin/streptomycin. BT474, MCF7, MDA-MB-231, PC9 and ZR-75-1 cells were cultured in RPMI 1640 (Gibco) with 10% FBS and 1% penicillin/streptomycin. MCF10A cells were cultured as using previously described methods (Sayegh et al., 2013, J. Biol. Chem. 9408-9417). All human cells were cultured at 37° C. and 5% carbon dioxide. HeLa and MCF7 cell lines were authenticated using short tandem repeat profiling performed at the DNA Analysis Facility on Science Hill at Yale University. All other human cell lines used were within 10 passages after being obtained from the American Type Culture Collection.
Cells were lysed using previously described methods (Lin et al., 2011, Proc. Natl. Acad. Sci. U.S.A. 108:13379-13386). Histones were separated by centrifugation, resuspended in Laemmeli buffer, and sonicated. Protein concentration of cell lysates was measured by Bradford assay. Samples in Laemmeli buffer were boiled 10 minutes at 95° C. and loaded onto 7% (whole cell lysates) or 18% (histones) SDS-PAGE gels. Membranes were blocked in 4% non-fat milk in Tris-buffered saline with 0.05% Tween (TBS-T) and incubated with primary antibodies in the same buffer or 5% bovine serum albumin in TBS-T overnight at 4° C. Membranes were incubated with secondary anti-rabbit or anti-mouse antibodies for one hour at room temperature. Blots were visualized by Thermo Scientific Pierce ECL Western Blotting Substrate (32106) or EMD Millipore Immobilon Western Chemiluminescent HRP Substrate (WBKLS0100) on film. Signal was quantified using ImageJ software.

[2] = inhibitors found by high throughput screening, read-out: KDM5A IC50

Row | SMILES | hit in KDM5A inhibitor screen (full-length FLAG-KDM5A) | IC50 (full-length FLAG-KDM5A; [2]) | further results
1 | O=C(O)c1ccnc(C(=O)O)c1 [2,4-PDCA, 2,4-pyridinedicarboxylic acid, reference compound] | among the active hits in the screen |  | 
2 | Cc1ccc(-n2sc3ccccc3c2=O)cc1 [PBIT, 2-4(4-methylphenyl)-1,2-benzisothiazol-3(2H)-one, reference compound] | among the active hits in the screen |  | 
3 | O=C(O)/C=C/c1ccc(O)c(O)c1 [caffeic acid, reference compound] | among the active hits in the screen |  | 
4 | C[C@@](Cc1ccc(O)c(O)c1)(NN)C(=O)O [carbidopa, reference compound] | among the active hits in the screen |  | 
5 | N[C@@H](Cc1ccc(O)c(O)c1)C(=O)O [levodopa, reference compound] | among the active hits in the screen |  | 

More lines, main results first:

Row | hit in KDM5A inhibitor screen (full-length FLAG-KDM5A) | IC50 (full-length FLAG-KDM5A; [2]) | SMILES | further results
6 |  | 57 nM | COc1cccc(Cc2nnc(S)n2-c2ccc(Cl)cc2)c1 [YU017175, 4-(4-chlorophenyl)-5-(3-methoxybenzyl)-4H-1,2,4-triazole-3-thiol] | 
7 |  | 1760 nM | COc1cccc(Cc2nnc(S)n2Cc2ccco2)c1 [YU017176, 4-(furan-2-ylmethyl)-5-(3-methoxybenzyl)-4H-1,2,4-triazole-3-thiol] | 
8 |  | 197 nM | C=CCn1c(S)nnc1-c1cccnc1 [YU125526, 4-allyl-5-(pyridin-3-yl)-4H-1,2,4-triazole-3-thiol] | 
9 |  | 159 nM | CCn1c(S)nnc1CNC(=O)c1cccc(C)c1 [YU126648, N-((4-ethyl-5-mercapto-4H-1,2,4-triazol-3-yl)methyl)-3-methylbenzamide] | 
10 |  | 79 nM | Cc1cccc(-n2c(C)nnc2S)c1 [YU128402, 5-methyl-4-(m-tolyl)-4H-1,2,4-triazole-3-thiol] | 
11 |  | 169 nM | CCCCSCCc1nnc(S)n1-c1ccccc1 [YU149596, 5-(2-(butylthio)ethyl)-4-phenyl-4H-1,2,4-triazole-3-thiol] | 
12 |  | 2660 nM | C=CCn1c(S)nnc1CNC(=O)c1cccc(C)c1 [YUKA2, N-[(4-allyl-5-mercapto-4H-1,2,4-triazol-3-yl)methyl]-3-methylbenzamide] | mode of KDM5A inhibition with respect to Fe(II) (full-length FLAG-KDM5A): uncompetitive with respect to Fe(II); KDM5A enzyme inhibition at low Fe(II) (full-length FLAG-KDM5A; 5 μM Fe(II)): too weak to generate robust IC50 curves; effect of catalase on inhibitory potency against KDM5A (full-length FLAG-KDM5A; 0.01 mg/ml catalase): did not affect the inhibitory potency; IC50 (full-length FLAG-KDM5A; 0.05-50 μM compound, 1 hour reactions, read-out: average in vitro IC50 against KDM5A): 1320 nM; change of KDM5A IC50 with α-KG concentration (full-length FLAG-KDM5A; 16-fold range of α-KG, 150 nM H3K4me3 peptide, 50 μM Fe(II)): did not change significantly; fold less active against KDM5C (vs KDM5A) (KDM5C): ~5 fold; cell activity by global H3K4 methylation changes [1]: but not YUKA2, was cell-active
